Data on 5 compounds can be found in publication PMC3483245, “Optimization of a direct spectrophotometric method to investigate the kinetics and inhibition of sialidases” (BMC Biochemistry, 2012).

One assay relates to pneumococcal sialidases. Details: method as in PMID 18835278. As to conditions: buffer substance; cited from earlier work.
The target of assay [1] is T1, NanA (Streptococcus pneumoniae, UniProt P62576). The experiment in a line: biochemical. The assay is classed as biochemical. The following applies: for inhibition of NanA (in words): modified direct method.
T1 sequence (P62576 54-1035): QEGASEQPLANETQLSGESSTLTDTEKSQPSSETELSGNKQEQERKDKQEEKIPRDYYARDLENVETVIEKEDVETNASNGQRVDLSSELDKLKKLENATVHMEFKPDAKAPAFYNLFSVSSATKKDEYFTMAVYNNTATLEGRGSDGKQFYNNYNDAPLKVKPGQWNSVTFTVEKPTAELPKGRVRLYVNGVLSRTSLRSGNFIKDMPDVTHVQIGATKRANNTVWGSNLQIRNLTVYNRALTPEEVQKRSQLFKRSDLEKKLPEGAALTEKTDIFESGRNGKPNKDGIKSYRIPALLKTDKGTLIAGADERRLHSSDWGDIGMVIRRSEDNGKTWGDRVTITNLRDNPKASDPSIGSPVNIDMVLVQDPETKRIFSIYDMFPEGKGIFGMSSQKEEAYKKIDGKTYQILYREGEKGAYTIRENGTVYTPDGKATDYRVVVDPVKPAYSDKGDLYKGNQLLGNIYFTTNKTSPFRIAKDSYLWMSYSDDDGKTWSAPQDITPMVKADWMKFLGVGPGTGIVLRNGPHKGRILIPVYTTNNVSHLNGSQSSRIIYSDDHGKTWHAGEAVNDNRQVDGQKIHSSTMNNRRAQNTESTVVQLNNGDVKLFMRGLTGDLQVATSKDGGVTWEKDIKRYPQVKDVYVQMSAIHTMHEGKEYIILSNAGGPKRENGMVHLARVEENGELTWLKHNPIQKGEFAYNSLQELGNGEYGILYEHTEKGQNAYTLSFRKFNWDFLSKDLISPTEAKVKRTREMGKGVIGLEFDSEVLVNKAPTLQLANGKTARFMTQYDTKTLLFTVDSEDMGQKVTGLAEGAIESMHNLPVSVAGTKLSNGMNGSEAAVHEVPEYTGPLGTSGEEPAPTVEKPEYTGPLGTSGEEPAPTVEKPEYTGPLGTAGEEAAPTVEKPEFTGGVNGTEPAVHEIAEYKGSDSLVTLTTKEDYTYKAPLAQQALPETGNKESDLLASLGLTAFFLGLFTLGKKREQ
The target in assay [2] is T2, NanC (Streptococcus pneumoniae, UniProt A0A0H2UQE4). Briefly: biochemical.
T2 sequence (A0A0H2UQE4 entry or part of it): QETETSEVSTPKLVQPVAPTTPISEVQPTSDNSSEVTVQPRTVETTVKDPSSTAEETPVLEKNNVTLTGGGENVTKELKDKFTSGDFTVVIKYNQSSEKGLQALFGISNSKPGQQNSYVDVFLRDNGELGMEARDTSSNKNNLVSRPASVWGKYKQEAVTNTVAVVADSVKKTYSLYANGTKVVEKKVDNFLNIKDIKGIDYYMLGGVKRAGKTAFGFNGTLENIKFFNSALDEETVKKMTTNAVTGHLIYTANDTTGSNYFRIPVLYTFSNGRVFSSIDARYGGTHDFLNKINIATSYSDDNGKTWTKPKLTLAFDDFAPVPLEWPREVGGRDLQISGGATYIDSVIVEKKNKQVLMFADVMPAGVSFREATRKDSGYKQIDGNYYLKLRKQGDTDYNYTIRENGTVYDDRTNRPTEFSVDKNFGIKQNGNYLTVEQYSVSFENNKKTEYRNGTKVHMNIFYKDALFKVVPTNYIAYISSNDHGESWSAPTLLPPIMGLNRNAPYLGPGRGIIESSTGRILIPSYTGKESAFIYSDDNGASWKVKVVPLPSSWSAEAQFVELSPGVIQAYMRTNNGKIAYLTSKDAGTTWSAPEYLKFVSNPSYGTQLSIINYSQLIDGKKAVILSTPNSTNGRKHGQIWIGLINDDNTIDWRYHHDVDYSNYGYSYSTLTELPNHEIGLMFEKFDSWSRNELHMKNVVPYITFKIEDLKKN
Assay [3] has as its target T3, NanB (Streptococcus pneumoniae serotype 4, UniProt Q54727). The experiment in a line: biochemical.
For assay [4], the target named is T1, NanA. The experiment in a line: Hydrolysis of p-NP-Neu5Ac by NanA, direct spectrophotometric method. The assay is classed as biochemical. As to conditions: 30°C, 20 mM MES pH 6.0, 400 nm.
Assay [5] has as its target T2, NanC. Briefly: Hydrolysis of p-NP-Neu5Ac by NanC, direct spectrophotometric method. It is filed as biochemical. The following applies: 30°C, 20 mM MES pH 6.0, 400 nm.
The target in assay [6] is T1, NanA. The experiment in a line: Hydrolysis of p-NP-Neu5Ac by NanA, conventional indirect spectrophotometric method. It is filed as biochemical. As to conditions: 37°C, stopped with 0.5 M Na2CO3 pH 9.0, 405 nm. The procedure:
(§1) The activity of the sialidases was assayed colorimetrically and fluorometrically using the substrates p-NP-Neu5Ac (Sigma, St. Louis, Miss) and 4MU-Neu5Ac (Sigma, St- Louis, Miss), respectively. Conventional indirect assays were performed as previously described. Briefly, the reaction mixtures containing the substrates and up to 100 nM sialidase were incubated at 37°C and stopped by the addition of 0.5 M Na2CO3 pH 9.0 for the colorimetric assay or 0.25 M glycine pH 10.0 for the fluorimetric assay. Released p-NP was detected spectrophometrically at 405 nm. The fluorescence associated with the release of 4-MU was measured at the excitation wavelength of 365 nm and an emission wavelength of 445 nm. These measurements were performed using an EnVision microplate reader (Perkin Elmer, Waltham, Mass.).

Assay [7] deals with T3, NanB. Briefly: Hydrolysis of p-NP-Neu5Ac by NanB, conventional indirect spectrophotometric method. The following applies: 37°C, stopped with 0.5 M Na2CO3 pH 9.0, 405 nm. It is filed as biochemical. The method, then: as §1
Assay [8] addresses T2, NanC. Briefly: Hydrolysis of p-NP-Neu5Ac by NanC, conventional indirect spectrophotometric method. It is filed as biochemical. As to conditions: 37°C, stopped with 0.5 M Na2CO3 pH 9.0, 405 nm. The method, then: as §1
The test system of assay [9] is NanB. As to conditions: direct method, 30°C, 20 mM MES pH 6.0, 400 nm.
Setting [10] is: first order kinetics up to 500 μM substrate.
Setting [11] is: first order kinetics up to 1,200 μM substrate.

“Also recorded” adds a separate entry of the source.

One may read the Ki as the equilibrium dissociation constant of an inhibitor or competing ligand from its target. The low end stands for a stronger hold on the target, the high end for a looser hold on the target.

T3 sequence (Q54727 30-697): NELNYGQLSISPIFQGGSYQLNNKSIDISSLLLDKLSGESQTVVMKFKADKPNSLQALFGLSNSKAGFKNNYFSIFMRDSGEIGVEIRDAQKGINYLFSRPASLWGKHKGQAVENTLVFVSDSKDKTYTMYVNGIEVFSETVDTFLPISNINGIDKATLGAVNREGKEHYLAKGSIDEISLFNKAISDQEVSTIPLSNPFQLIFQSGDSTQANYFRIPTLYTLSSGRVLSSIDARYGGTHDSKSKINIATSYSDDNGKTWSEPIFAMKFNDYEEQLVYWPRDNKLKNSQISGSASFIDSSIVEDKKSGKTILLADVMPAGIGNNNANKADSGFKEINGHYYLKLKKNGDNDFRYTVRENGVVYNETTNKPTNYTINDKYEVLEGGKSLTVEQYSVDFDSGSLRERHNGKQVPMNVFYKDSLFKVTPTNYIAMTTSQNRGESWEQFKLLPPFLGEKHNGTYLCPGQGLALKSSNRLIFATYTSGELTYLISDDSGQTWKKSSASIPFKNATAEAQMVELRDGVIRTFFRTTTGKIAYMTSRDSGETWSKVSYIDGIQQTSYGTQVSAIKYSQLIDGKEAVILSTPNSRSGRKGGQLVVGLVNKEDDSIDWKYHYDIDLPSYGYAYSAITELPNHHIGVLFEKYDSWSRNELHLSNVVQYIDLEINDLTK

Regarding `O=S(=O)(O)CCNC1CCCCC1` [CHES, 2-n-cyclohexylamino ethane sulfonic acid], the “inhibition of pneumococcal sialidases (in words)” value in the assay with pneumococcal sialidases is given as “weak inhibitor”.

Take `CC(=O)N[C@H]1[C@H]([C@H](O)[C@H](O)CO)OC(C(=O)O)=C[C@@H]1O` [Neu5Ac2en, 2-deoxy-2,3-didehydro-N-acetylneuraminic acid]: the “inhibition of NanA (in words)” value on NanA [1] is reported as “significant inhibition; also recorded: inhibition constants in the micromolar range”. Affinity at NanC [2] was put at a Ki of 2010 µM.

With `CCC(CC)O[C@@H]1C=C(C(=O)O)C[C@H](N)[C@H]1NC(C)=O` [Oseltamivir carboxylate], the Ki on NanA [1] is 1.77 µM; on NanB [3], greater than 7500 µM; at NanC [2], greater than 7500 µM. In addition, on NanA [1], the “inhibition of NanA (in words)” value is listed as “significant inhibition; also recorded: inhibition constants in the micromolar range”.

`CC(=O)N[C@H]1[C@H]([C@H](O)[C@H](O)CO)OC(C(=O)O)=C[C@@H]1N=C(N)N` [Zanamivir]: the results for the Ki at NanA [1], on NanB [3] and at NanC [2] were 720 µM, greater than 7500 µM and greater than 7500 µM, respectively. The “inhibition of NanA (in words)” value at NanA [1] is recorded as “Very limited inhibitory effects”.

Regarding `CC(=O)N[C@H]1[C@H]([C@H](O)[C@H](O)CO)OC(Oc2ccc([N+](=O)[O-])cc2)(C(=O)O)C[C@@H]1O` (some centres unmarked) [p-NP-Neu5Ac, 2-O-(p-nitrophenyl)-N-acetylneuraminic acid], the “k cat / K m” value on NanA [4] is “(3.5 ± 0.3) × 10^5 M^-1·s^-1”; on NanC [5] it was “(3.4 ± 0.3) × 10^4 M^-1·s^-1”; on NanA [6], “(8.4 ± 0.9) × 10^4 M^-1·s^-1”; on NanB [7] it was “(1.1 ± 0.1) × 10^2 M^-1·s^-1”; on NanC [8], “(1.2 ± 0.1) × 10^4 M^-1·s^-1”; with NanB [9] it was “(2.7 ± 0.3) × 10^2 M^-1·s^-1”. Further, the K m is greater than 500 µM on NanA [4] (setting [10]); greater than 500 µM at NanC [5] (setting [10]); >1,100 μM at NanA [6] (setting [11]); >1,200 μM at NanB [7] (setting [11]); greater than 700 µM at NanC [8] (setting [11]); greater than 500 µM with NanB [9] (setting [10]). The k cat at NanA [4] (setting [10]) is greater than 175 s⁻¹; on NanC [5] (setting [10]) it was greater than 17 s⁻¹; at NanA [6] (setting [11]) it was greater than 490 s⁻¹; at NanB [7] (setting [11]), greater than 11 s⁻¹; at NanC [8] (setting [11]), greater than 11 s⁻¹; in the assay with NanB [9] (setting [10]), greater than 0.14 s⁻¹.
